Measured values from ChEMBL document CHEMBL3400086, “Thieno[2,3-b]pyridines as negative allosteric modulators of metabotropic GluR5 receptors: Lead optimization” (Bioorg Med Chem Lett, 2015).

Columns and labels:
[1] = target: T1, Metabotropic glutamate receptor 5 (Rattus norvegicus, UniProt P31424); experiment: Displacement of [3H]-M-MPEP from rat cerebrocortical mGluR5 receptor
[2] = target: T1, Metabotropic glutamate receptor 5; experiment: Negative allosteric modulation of mGlu5 receptor in primary E17 rat embryo neuron assessed as ca2+ level by fluo-4/AM assay
Liver microsome [3] = experiment: Intrinsic clearance in human liver microsomes measured per gram of tissue at 2.5 uM; format: ADME
Liver microsome [4] = experiment: Intrinsic clearance in Wistar rat liver microsomes measured per gram of tissue at 2.5 uM; format: ADME

T1 sequence (P31424 whole entry): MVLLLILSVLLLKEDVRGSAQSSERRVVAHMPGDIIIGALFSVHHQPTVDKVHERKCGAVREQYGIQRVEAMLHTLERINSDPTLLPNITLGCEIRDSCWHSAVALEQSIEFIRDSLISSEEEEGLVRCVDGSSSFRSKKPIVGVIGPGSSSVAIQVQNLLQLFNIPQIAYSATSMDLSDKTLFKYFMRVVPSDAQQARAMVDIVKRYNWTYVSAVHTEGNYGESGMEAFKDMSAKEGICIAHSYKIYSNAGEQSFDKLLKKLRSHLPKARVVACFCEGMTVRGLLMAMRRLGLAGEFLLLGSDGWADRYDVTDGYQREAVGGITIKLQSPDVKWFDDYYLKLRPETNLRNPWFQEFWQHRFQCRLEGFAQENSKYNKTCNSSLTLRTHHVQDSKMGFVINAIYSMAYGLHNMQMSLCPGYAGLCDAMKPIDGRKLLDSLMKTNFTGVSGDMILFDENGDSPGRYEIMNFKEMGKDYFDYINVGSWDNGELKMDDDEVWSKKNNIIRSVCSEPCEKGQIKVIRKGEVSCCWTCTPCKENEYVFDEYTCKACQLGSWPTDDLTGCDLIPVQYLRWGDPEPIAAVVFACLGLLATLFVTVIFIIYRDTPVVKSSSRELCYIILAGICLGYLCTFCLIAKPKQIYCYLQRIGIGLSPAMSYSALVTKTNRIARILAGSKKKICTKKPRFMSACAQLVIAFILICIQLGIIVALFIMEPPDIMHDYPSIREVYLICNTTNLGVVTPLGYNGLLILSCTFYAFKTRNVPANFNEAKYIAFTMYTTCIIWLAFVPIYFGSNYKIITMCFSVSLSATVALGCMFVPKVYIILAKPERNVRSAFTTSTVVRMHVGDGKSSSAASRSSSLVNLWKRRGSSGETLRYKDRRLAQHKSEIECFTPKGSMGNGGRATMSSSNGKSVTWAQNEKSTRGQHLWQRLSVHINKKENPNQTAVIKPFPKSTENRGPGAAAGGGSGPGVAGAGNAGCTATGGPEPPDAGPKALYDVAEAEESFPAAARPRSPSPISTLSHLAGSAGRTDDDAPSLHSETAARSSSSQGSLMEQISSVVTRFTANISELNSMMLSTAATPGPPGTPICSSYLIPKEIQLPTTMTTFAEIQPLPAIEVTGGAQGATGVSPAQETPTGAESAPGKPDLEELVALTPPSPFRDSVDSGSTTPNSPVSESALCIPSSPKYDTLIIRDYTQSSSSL

SMILES	Ki [1] [nM]	IC50 [2] [nM]	CLH (Liver microsome [3]) [mL/min/g]	CLH (Liver microsome [4]) [mL/min/g]
O=S(=O)(c1ccc(Cl)cc1)c1sc2ncccc2c1-c1ccccc1F	51	135	2.4	4.1
N#Cc1cc(F)cc(S(=O)(=O)c2sc3ncccc3c2-c2ccoc2)c1	13	–	3.7	4.3
N#Cc1cc(F)cc(S(=O)(=O)c2sc3ncccc3c2-c2ccccc2F)c1	1.1	1.5	2.4	3.5
N#Cc1cc(F)cc(S(=O)(=O)c2sc3ncc(N)cc3c2-c2ccc(Cl)cc2)c1	2.2	30	1.3	1
Cc1cc(C)cc(S(=O)(=O)c2sc3ncccc3c2-c2ccc(Cl)cc2)c1	24	–	–	–
N#Cc1cc(F)cc(S(=O)(=O)c2sc3nc(Cl)ccc3c2-c2ccc(F)cc2)c1	20	–	0.6	2.1
COc1ccc(S(=O)(=O)c2sc3ncccc3c2-c2ccc(Cl)cc2)cc1	20	–	–	–
N#Cc1cc(F)cc(S(=O)(=O)c2sc3ncccc3c2-c2cnccc2F)c1	13.6	22	0.9	1
Cc1ccc(S(=O)(=O)c2sc3ncccc3c2-c2ccc(Cl)cc2)cc1	15.4	–	–	–
N#Cc1cccc(S(=O)(=O)c2sc3ncccc3c2-c2cccc(F)c2)c1	4.8	–	1.9	13.9
O=S(=O)(c1ccc(Cl)cc1)c1sc2nc(Cl)ccc2c1-c1ccc(Cl)cc1	93	1030	0.01	3.4
O=S(=O)(c1ccc(Cl)cc1)c1sc2ncc(Cl)cc2c1-c1ccc(Cl)cc1	69	363	0.01	2.8
N#Cc1cc(F)cc(S(=O)(=O)c2sc3ncccc3c2-c2cnccc2Cl)c1	9.3	34	1.1	1
N#Cc1cc(F)cc(S(=O)(=O)c2sc3ncccc3c2-c2ccc(Cl)cc2)c1	2	18	1.4	3.4
N#Cc1cccc(S(=O)(=O)c2sc3ncc(N)cc3c2-c2ccccc2F)c1	1.8	–	0.6	2.5
Cc1ccc(S(=O)(=O)c2sc3ncccc3c2-c2ccc(Cl)cc2)cc1F	11.8	–	–	–
Cc1ccc(S(=O)(=O)c2sc3ncccc3c2-c2ccc(Cl)cc2)cc1Cl	6.8	–	–	–
N#Cc1cc(F)cc(S(=O)(=O)c2sc3ncc(N)cc3c2-c2ccncc2Cl)c1	44	–	1	0.7
Cc1ccc(-c2c(S(=O)(=O)c3cccc(C#N)c3)sc3ncccc23)cc1	3	–	3.3	17.3

SMILES	Ki [1] [nM]	IC50 [2] [nM]	CLH (Liver microsome [3]) [mL/min/g]	CLH (Liver microsome [4]) [mL/min/g]
N#Cc1cc(F)cc(S(=O)(=O)c2sc3ncc(N)cc3c2-c2cccc(Cl)c2)c1	–	38	0.9	1.5
O=S(=O)(c1ccc(Cl)cc1Cl)c1sc2ncccc2c1-c1ccc(Cl)cc1	105	–	–	–
O=S(=O)(c1ccc(Cl)c(Cl)c1)c1sc2ncccc2c1-c1ccc(Cl)cc1	10.7	–	–	–
Nc1cnc2sc(S(=O)(=O)c3ccc(Cl)cc3)c(-c3ccccc3F)c2c1	58	–	1.9	2.8
O=S(=O)(c1ccc(Cl)cc1)c1sc2ncc(F)cc2c1-c1ccc(Cl)cc1	124	–	0.3	1.7
COc1ccc(-c2c(S(=O)(=O)c3cccc(C#N)c3)sc3ncccc23)cc1	23	–	2.7	13.5
CN(C)c1ccnc2sc(S(=O)(=O)c3ccc(Cl)cc3)c(-c3ccc(Cl)cc3)c12	26	–	3.8	9.5
O=S(=O)(c1ccc(Cl)cc1)c1sc2ncccc2c1-c1cccc(Cl)c1	37	–	1.3	2.8
COc1ccc2c(-c3ccc(Cl)cc3)c(S(=O)(=O)c3ccc(Cl)cc3)sc2n1	652	–	0.01	2.6
N#Cc1cccc(S(=O)(=O)c2sc3ncc(N)cc3c2-c2ccc(Cl)cc2)c1	9	–	1.6	0.4
O=S(=O)(c1cccc(Cl)c1)c1sc2ncccc2c1-c1ccc(Cl)cc1	15.9	–	–	–
O=S(=O)(c1cccc(F)c1)c1sc2ncccc2c1-c1ccc(Cl)cc1	43	–	–	–
O=S(=O)(c1ccc(Cl)cc1)c1sc2ncccc2c1-c1ccc(Cl)c(Cl)c1	31	–	2.5	9.7
O=C(Nc1cccc(Cl)c1)O/N=C1\CCCCC1Cc1cccs1 (stereo unspecified)	9.1	–	–	–
O=S(=O)(c1cc(F)cc(C(F)(F)F)c1)c1sc2ncccc2c1-c1ccc(Cl)cc1	41	–	–	–
COc1ccc(S(=O)(=O)c2sc3ncccc3c2-c2ccc(Cl)cc2)cc1F	7.9	–	–	–
O=S(=O)(c1cccnc1)c1sc2ncccc2c1-c1ccc(Cl)cc1	289	–	–	–
O=S(=O)(c1ccccc1)c1sc2ncccc2c1-c1ccc(Cl)cc1	96	–	–	–
